Activity calls are given as the source filed them.
How the values were obtained:
[1] = miR-122 activators in hepatoma reporter cells, dose response, cell-based, Huh7 psiCHECK-miR122, Renilla luciferase, cherry-picked (AID 651956); type: functional;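 also: huh7 hepatoma cells stably carrying a psiCHECK-2 miR-122 sensor plasmid; renilla luciferase signal reporting endogenous miR-122 activity after 48 h compound exposure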
[2] = HEK293T cytotoxicity, dose response, cytotoxicity control for miR-122 modulator project, cell-based, activator set, cherry-pick (AID 720690); type: functional;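 also: HEK293T human cells scored for general mammalian cytotoxicity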
[3] = molecular target: T1, Botulinum neurotoxin type A (Clostridium botulinum (strain Hall / ATCC 3502 / NCTC 13319 / Type A), UniProt P0DPI1); test: High-throughput multiplex microsphere dose response for inhibitors of toxin protease, specifically Botulinum neurotoxin light chain A protease, compounds from Powder Set 01.; type: functional, Clostridium botulinum A str. ATCC 3502; conditions: read-out: EC50_MICROM
T1 sequence (P0DPI1 2-448 limits assumed): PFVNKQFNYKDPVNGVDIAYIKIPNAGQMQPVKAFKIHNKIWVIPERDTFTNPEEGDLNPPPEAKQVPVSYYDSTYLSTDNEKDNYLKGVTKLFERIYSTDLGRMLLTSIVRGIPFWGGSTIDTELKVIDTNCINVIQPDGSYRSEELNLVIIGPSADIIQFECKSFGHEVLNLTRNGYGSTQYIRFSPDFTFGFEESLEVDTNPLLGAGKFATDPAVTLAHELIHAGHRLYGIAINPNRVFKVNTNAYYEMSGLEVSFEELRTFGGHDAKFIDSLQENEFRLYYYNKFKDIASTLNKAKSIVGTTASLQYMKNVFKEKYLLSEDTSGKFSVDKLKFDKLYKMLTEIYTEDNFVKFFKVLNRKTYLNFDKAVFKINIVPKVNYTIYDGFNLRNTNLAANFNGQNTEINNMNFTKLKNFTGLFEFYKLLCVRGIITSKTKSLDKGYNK

[4] = molecular target: T1, Botulinum neurotoxin type A; test: Confirmatory FRET assay using full length substrates for Botulinum neurotoxin light chain A protease, with Powder Set01.; type: functional
[5] = MITF: Counter assay: A375 proliferation Measured in Cell-Based System Using Plate Reader - 2084-03_Inhibitor_Dose_DryPowder_Activity_Set8.; type: functional; conditions: A-375
[6] = MITF Orthogonal Assay: SK-MEL-5 CTG Assay Measured in Cell-Based System Using Plate Reader - 2084-02_Inhibitor_Dose_DryPowder_Activity_Set7.; type: functional
[7] = NIH3T3 fibroblast cytotoxicity, dose response, cytotoxicity control for PglD inhibitor project, cell-based, CellTiter-Glo luminescence, dry powder (AID 652044); type: functional
[8] = tested on: HeLa; test: HeLa cell cytotoxicity, dose response, cytotoxicity control, ATP luminescence, cherry-pick samples (AID 687004); type: functional, cell-based; conditions: Homo sapiens
[9] = LMP1-driven NF-kB reporter inhibition, dose response, cell-based, luciferase reporter, luminescence, dry powder, set 2 (AID 624376); type: functional
[10] = Late stage assay provider results from the probe development effort to identify selective inhibitors of heat shock protein 90 (HSP90): Absorbance-based cell proliferation assay in MCF7 cells.; type: functional
[11] = Late stage assay provider results from the probe development effort to identify selective inhibitors of heat shock protein 90 (HSP90): Absorbance-based cell proliferation assay in SKBR3 cells.; type: functional; conditions: SK-BR-3
[12] = HEK293 cell cytotoxicity, dose response, cytotoxicity control, cherry-picks, set 5 (AID 1053117); type: functional, cell-based
[13] = molecular target: Potassium channel subfamily K member 9 (Homo sapiens, UniProt Q9NPC2); test: TASK3 (KCNK9) channel inhibitors, thallium flux, SAR follow-up, selectivity assay for TASK1 inhibitor project, cell-based, FluxOR thallium flux, concentration-response (AID 652211); type: functional;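 also: potency is for inhibitors of the channel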
Chain of Potassium channel subfamily K member 9 (Q9NPC2 whole entry): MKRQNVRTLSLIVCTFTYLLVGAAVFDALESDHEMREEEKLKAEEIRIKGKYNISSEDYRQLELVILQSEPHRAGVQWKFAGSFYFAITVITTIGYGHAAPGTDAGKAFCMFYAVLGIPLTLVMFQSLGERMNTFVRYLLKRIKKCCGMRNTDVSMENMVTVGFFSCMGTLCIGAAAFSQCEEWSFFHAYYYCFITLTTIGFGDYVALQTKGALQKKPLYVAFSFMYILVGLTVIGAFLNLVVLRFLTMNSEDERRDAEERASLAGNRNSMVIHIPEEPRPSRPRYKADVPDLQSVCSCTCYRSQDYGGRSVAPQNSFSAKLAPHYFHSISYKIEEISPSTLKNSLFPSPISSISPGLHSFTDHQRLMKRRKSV

CN1C(=O)c2cc(NC(=O)c3cccc(F)c3)ccc2OC[C@H]2O[C@H](CC(=O)N3CCc4ccccc4C3)CC[C@@H]21
AC50 [1]: 18.8 µM (active)
AC50 [2]: 31.3 µM (active)

O=[N+]([O-])c1ccc([N+]2=N[C-](c3ccccc3)CC2c2ccccc2)cc1 (stereo not drawn)
EC50 [3]: 0.3 µM (active)
EC50 [4]: 1.1 µM (active)

O=C1C=C(NCc2ccccc2)C(=O)c2ccccc21
AC50 [5]: > 70 µM (inactive)
AC50 [6]: 7.74 µM (active)

CC(C)NC(=O)N(C)C[C@@H]1Oc2ccc(NC(=O)Cc3cn(C)c4ccccc34)cc2C(=O)N([C@H](C)CO)C[C@H]1C
AC50 [7]: > 47 µM (inactive)

N#Cc1ccc(-c2ccc3c(c2)[C@H]2[C@H](CCN2C(=O)Cc2ccccc2)[C@@H](CO)N3)cc1
AC50 [8]: 28.5 µM (active)

C[C@H](NC(=O)C[C@H]1C[C@@H]2c3cc(NC(=O)c4cccnc4)ccc3O[C@@H]2[C@@H](CO)O1)c1ccccc1
AbsAC35 [9]: 164.54 µM

COc1ccc(N/C=C2/C=C(Br)C(=O)OC2=O)c(OC)c1
IC50 [10]: 3.8 µM (active)
IC50 [11]: 11.4 µM (inactive)

CN(C)C(=O)c1ccc(-c2ccc3c(c2)[C@@H]2[C@@H](CCN2C(=O)c2ccc(F)cc2)[C@H](CO)N3C)cc1
AC50 [12]: > 52 µM (inactive)

COc1cccc(C(=O)Nc2cccc(NC(=O)c3cccc(C)c3)c2)c1
IC50 [13]: 29.3 µM (active)

Source: ChEMBL document CHEMBL1201862, “PubChem BioAssay data set” (2004)
